Assay results taken from patent US20050032873A1, “3-Amino chroman and 2-amino tetralin derivatives” (Wyeth, priority 2003, published 2005).
Where two headings read alike, the source gives them in different places.

Columns and labels:
5-HT1A receptor [1] = biological target: T1, 5-HT1A receptor (Homo sapiens, UniProt P08908); assay: cAMP accumulation assay, 5-HT1A function; type: cell-based; details: for IC50: cells marked IC50 (antagonist), read-out: 5-HT1A Function cAMP IC50; for 5-HT1A Function cAMP (Emax) / Emax: in brackets after EC50 or IC50; for EC50: cells marked EC50 (agonist); for Emax: read-out: 5-HT1A Function cAMP (Emax)
T1 sequence (P08908 1-422): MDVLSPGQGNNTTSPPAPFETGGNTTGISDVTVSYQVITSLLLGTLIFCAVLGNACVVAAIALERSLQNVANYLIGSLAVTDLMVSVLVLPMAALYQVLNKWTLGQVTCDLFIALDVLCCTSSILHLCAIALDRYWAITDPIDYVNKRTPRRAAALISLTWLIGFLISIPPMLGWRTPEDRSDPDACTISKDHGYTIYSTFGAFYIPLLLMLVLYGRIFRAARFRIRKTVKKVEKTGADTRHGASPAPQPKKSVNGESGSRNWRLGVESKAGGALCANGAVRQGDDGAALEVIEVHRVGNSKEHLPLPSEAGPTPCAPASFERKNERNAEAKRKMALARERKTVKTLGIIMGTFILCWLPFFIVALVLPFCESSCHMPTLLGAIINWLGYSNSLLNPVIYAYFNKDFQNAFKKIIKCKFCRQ

5-HT1A receptor [2] = biological target: T1, 5-HT1A receptor; assay: 5-HT1A receptor affinity: displacement of [3H] 8-OH-DPAT; type: binding; parameters: expressed in transfected cells; details: displacement of [3H] 8-OH-DPAT; CHO cells stably transfected with human 5-HT1A receptors; read-out: 5-HT1A Receptor Affinity Ki
[3] = biological target: T2, cloned human 5-HT1A receptors (Homo sapiens, UniProt P08908); assay: 35S-GTPγS binding assay, 5-HT1A function; type: biochemical; details: for IC50: antagonist potency, reversal of 8-OH-DPAT, read-out: 5-HT1A Function GTPγS IC50; for EC50: agonist potency
T2 construct: expressed in transfected cells
T2 sequence (P08908 1-422): T1 sequence (P08908 1-422)

serotonin transporter = biological target: T3, serotonin transporter (Rattus norvegicus, UniProt P31652); assay: 5-HT transporter affinity: displacement of 3H-paroxetine from male rat cortical membranes; type: binding; details: for Ki: displacement of 3H-paroxetine, male rat cortical membranes, read-out: 5-HT Transporter Affinity Ki
T3 construct: displace ^3H-paroxetine from male rat cortical membranes; from tissue; host or cells: male rat cortical membranes
T3 sequence (P31652 whole entry): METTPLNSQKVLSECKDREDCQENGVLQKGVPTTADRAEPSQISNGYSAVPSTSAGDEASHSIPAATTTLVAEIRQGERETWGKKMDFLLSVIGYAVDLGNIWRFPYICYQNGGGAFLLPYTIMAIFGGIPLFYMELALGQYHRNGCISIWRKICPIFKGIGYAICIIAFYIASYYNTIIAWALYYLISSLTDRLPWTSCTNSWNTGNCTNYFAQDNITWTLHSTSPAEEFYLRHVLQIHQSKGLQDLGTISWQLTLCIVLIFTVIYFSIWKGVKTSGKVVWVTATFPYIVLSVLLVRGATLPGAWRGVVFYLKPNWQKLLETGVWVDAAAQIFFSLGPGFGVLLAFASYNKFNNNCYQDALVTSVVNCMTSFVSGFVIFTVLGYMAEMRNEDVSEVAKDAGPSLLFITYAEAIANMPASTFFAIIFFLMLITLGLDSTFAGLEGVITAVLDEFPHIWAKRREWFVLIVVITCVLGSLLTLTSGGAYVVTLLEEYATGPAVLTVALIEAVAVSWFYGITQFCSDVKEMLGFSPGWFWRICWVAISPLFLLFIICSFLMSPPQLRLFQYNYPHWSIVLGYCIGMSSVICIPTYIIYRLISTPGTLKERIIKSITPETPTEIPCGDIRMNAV

[4] = maximum inhibitory effect, in brackets after IC50, read-out: 5-HT1A Function GTPγS (Imax)
[5] = maximum stimulatory effect, in brackets after EC50, read-out: 5-HT1A Function GTPγS (Emax)
[6] = maximum inhibitory effect, in brackets after IC50

Row | Structure (SMILES) | IC50 (5-HT1A receptor [1]) [µM] | 5-HT1A Function cAMP (Emax) (5-HT1A receptor [1]) [%] | Ki (5-HT1A receptor [2]) [µM] | IC50 [3] [µM] | Emax [3, 4] [%] | Ki (serotonin transporter) [µM] | EC50 (5-HT1A receptor [1]) [µM] | Emax (5-HT1A receptor [1]) [%] | EC50 [3] [µM] | Emax [3, 5] [%] | 5-HT1A Function GTPγS (Emax) ([3]; maximum stimulatory effect, in brackets after EC50) [%] | 5-HT1A Function GTPγS (Imax) [3, 6] [%] | 5-HT Transporter Affinity, % @ 1 μM (serotonin transporter; @ 1 μM) [% @ 1 μM]
1 | CCCN(CCCc1c[nH]c2ccc(F)cc12)C1CCc2c(F)ccc(OC)c2C1 (single isomer, unassigned; (-)) [Compound 51b, (−)-5-fluoro-N-[3-(5-fluoro-1H-indol-3-yl)propyl]-8-methoxy-N-propyl-1,2,3,4-tetrahydro-2-naphthalenamine] | 0.05 | 0 | 0.0142 | 0.048 | 46 | 0.00112 | – | – | – | – | – | – | –
2 | COC(=O)c1ccc(F)c2c1C[C@@H](NCCCCc1c[nH]c3ccc(F)cc13)CO2 [Compound 57b, methyl (3R)-8-fluoro-3-{[4-(5-fluoro-1H-indol-3-yl)butyl]amino}chromane-5-carboxylate] | – | – | 0.0194 | – | – | 0.0122 | 0.18 | 93 | 0.641 | 100 | – | – | –
3 | COc1cccc2c1CC(N(CCCc1c[nH]c3ccc(C#N)cc13)C1CCC1)CO2 (centres unmarked) [Compound 46, 3-{3-[cyclobutyl(5-methoxy-3,4-dihydro-2H-chromen-3-yl)amino]propyl}-1H-indole-5-carbonitrile] | 0.899 | – | 0.0146 | 0.218 | 81 | 0.0076 | – | 0 | 0.107 | 36 | – | – | –
4 | NC(=O)c1cccc2c1CC(N(CCCc1c[nH]c3ccc(F)cc13)C1CCC1)CO2 (single isomer, unassigned; (-)) [Compound 134a, (−)-3-{cyclobutyl[3-(5-fluoro-1H-indol-3-yl)propyl]amino}chromane-5-carboxamide] | – | 89 | 0.00066 | 0.191 | 60 | 0.00275 | 0.00387 | – | 0.066 | – | 30 | – | –
5 | CCCN(CCCc1c[nH]c2c(Cl)cccc12)C1COc2c(F)ccc(C(N)=O)c2C1 (centres unmarked) [Compound 113, 3-[[3-(7-chloro-1H-indol-3-yl)propyl](propyl)amino]-8-fluorochromane-5-carboxamide] | – | – | 0.00202 | – | – | 0.051 | 0.016 | 91 | 0.0872 | 56 | – | – | –
6 | CCCN(C(C)CCc1c[nH]c2ccc(F)cc12)C1COc2c(F)ccc(C(N)=O)c2C1 (single isomer, unassigned) [Compound 12c, 8-fluoro-3-[[3-(5-fluoro-1H-indol-3-yl)-1-methylpropyl](propyl)amino]-3,4-dihydro-2H-chromene-5-carboxamide] | 0.0737 | 0 | 0.0488 | 3 | – | 0.121 | – | – | – | – | – | 100 | –
7 | COC(=O)c1cccc2c1CC(NCCCc1c[nH]c3c(F)cc(F)cc13)CO2 (centres unmarked) [Compound 135, Methyl 3-{[3-(5,7-difluoro-1H-indol-3-yl)propyl]amino}chromane-5-carboxylate] | – | – | 0.0199 | – | – | 0.058 | 0.274 | 98 | 0.441 | 100 | – | – | –
8 | CCN(CCCc1c[nH]c2ccc(Cl)cc12)C1COc2c(F)ccc(C(N)=O)c2C1 (centres unmarked) [Compound 115, 3-[[3-(5-chloro-1H-indol-3-yl)propyl](ethyl)amino]-8-fluorochromane-5-carboxamide] | – | – | 0.00604 | 1.99 | 72 | 0.0214 | 0.046 | 77 | 0.0522 | 38 | – | – | –
9 | NC(=O)c1ccc(F)c2c1CC(N(CC1CCc3[nH]c4ccc(F)cc4c3C1)C1CCC1)CO2 (single isomer, unassigned; (+)) [Compound 174b, (+)-3-{cyclobutyl[(6-fluoro-2,3,4,9-tetrahydro-1H-carbazol-3-yl)methyl]amino}-8-fluorochromane-5-carboxamide] | 0.0641 | – | 0.00085 | 1.44 | – | 0.192 | – | 0 | – | – | – | 67 | –
10 | CCCN(CC1CCc2[nH]c3ccc(F)cc3c2C1)[C@H]1COc2c(F)ccc(C(N)=O)c2C1 (single isomer, unassigned; (+)) [Compound 177b] | 0.0362 | 0 | 0.00734 | 0.181 | – | 0.181 | – | – | – | – | – | 74 | –
11 | C[C@H](CCN(C1CCC1)[C@@H]1COc2c(F)ccc(C(N)=O)c2C1)c1c[nH]c2ccc(F)cc12 [Compound 152b, (3S)-3-{cyclobutyl[(3R)-3-(5-fluoro-1H-indol-3-yl)butyl]amino}-8-fluorochromane-5-carboxamide] | 0.727 | – | 0.322 | 5 | 50 | 0.182 | – | 0 | – | – | – | – | –
12 | CCCN(CCCc1c[nH]c2ccc(F)cc12)C1COc2c(F)ccc(C(N)=O)c2C1 (centres unmarked) [Compound 2, 8-fluoro-3-{[3-(5-fluoro-1H-indol-3-yl)propyl](propyl)amino}chromane-5-carboxamide] | – | – | 0.00294 | – | – | 0.006 | 0.0104 | 83.5 | 0.168 | 77 | – | – | –
13 | NC(=O)c1cccc2c1CC(N(CCCc1c[nH]c3ccc(F)cc13)CC1CC1)CO2 (centres unmarked) [Compound 148, 3-{(cyclopropylmethyl)[3-(5-fluoro-1H-indol-3-yl)propyl]amino}chromane-5-carboxamide] | – | – | 0.00033 | – | – | 0.00325 | 0.00054 | 100 | 0.00804 | 81 | – | – | –
14 | NC(=O)c1ccc(F)c2c1CC(NCCCc1c[nH]c3ccc(F)cc13)CO2 (centres unmarked) [Compound 1, 8-fluoro-3-{[3-(5-fluoro-1H-indol-3-yl)propyl]amino}chromane-5-carboxamide] | – | – | 0.212 | – | – | 0.007 | 0.229 | 79.5 | 5 | 100 | – | – | –
15 | O=C(NC1CCC1)c1ccc(F)c2c1CC(N(CCCc1c[nH]c3ccc(F)cc13)C1CCC1)CO2 (centres unmarked) [Compound 65, N-cyclobutyl-3-{cyclobutyl[3-(5-fluoro-1H-indol-3-yl)propyl]amino}-8-fluorochromane-5-carboxamide] | 0.358 | – | 0.214 | 0.0915 | 48 | 0.00398 | – | 0 | – | – | – | – | –
16 | CCCN(CCCc1c[nH]c2ccc(OC)cc12)C1COc2c(F)ccc(C(N)=O)c2C1 (centres unmarked) [Compound 106, 8-fluoro-3-[[3-(5-methoxy-1H-indol-3-yl)propyl](propyl)amino]chromane-5-carboxamide] | – | – | 0.00061 | 0.111 | 42 | – | 0.00253 | 99 | 0.0531 | 47 | – | – | 53
17 | COc1cccc2c1CC(N(C)CCCc1c[nH]c3ccc(F)cc13)CO2 (centres unmarked) [Compound 33, N-[3-(5-fluoro-1H-indol-3-yl)propyl]-5-methoxy-N-methylchroman-3-amine] | – | – | 0.04 | – | – | 0.0068 | 0.0952 | 91 | 0.00362 | 69 | – | – | –
18 | NC(=O)c1ccc(F)c2c1CC(N(CCCc1c[nH]c3c(F)cc(F)cc13)C1CCC1)CO2 (single isomer, unassigned; (+)) [Compound 9b, (+)-3-{cyclobutyl[3-(5,7-difluoro-1H-indol-3-yl)propyl]amino}-8-fluorochromane-5-carboxamide] | 0.197 | 0 | 0.0689 | 6 | – | 0.0122 | – | – | – | – | – | 74 | –
19 | CCN(CC1CCc2[nH]c3ccc(F)cc3c2C1)[C@H]1COc2c(F)ccc(C(N)=O)c2C1 (single isomer, unassigned; (-)) [Compound 176a] | 0.878 | – | 0.392 | 4.26 | 92 | 0.619 | – | 0 | – | – | – | – | –
20 | CCCN(CCCc1coc2ccccc12)C1COc2c(F)ccc(C(N)=O)c2C1 (centres unmarked) [Compound 20, 3-[[3-(1-benzofuran-3-yl)propyl](propyl)amino]-8-fluorochromane-5-carboxamide] | – | – | 0.00037 | – | – | 0.575 | 0.0622 | 88 | 0.0357 | 84 | – | – | –
21 | CCN(CCCCc1c[nH]c2ccc(F)cc12)C1COc2cccc(OC)c2C1 (centres unmarked) [Compound 32, N-ethyl-N-[4-(5-fluoro-1H-indol-3-yl)butyl]-5-methoxychroman-3-amine] | – | – | 0.00278 | – | – | 0.0011 | 0.0854 | 95 | 0.123 | 100 | – | – | –
